Results: patent publication US20160000762A1, “IMPROVING COGNITIVE FUNCTION” (THE REGENTS OF THE UNIVERSITY OF CALIFORNIA, priority 2013, published 2016)

Key:
SC and TA inputs to CA1 = test: Field potential recordings and LTP, acute hippocampal slices of injected mice; type: in vivo, wild-type mice
Protocol: Electrophysiology. Transverse [for Schaffer collateral (SC) input studies] or horizontal [for temporammonic (TA) input studies] hippocampal slices (400-μm thick) were prepared from adult mice. Slices were made using ice-cold dissection buffer (in mM: 212.7 sucrose, 2.6KCl, 1.23NaH2PO4, 10 dextrose, 3MgCl2 and 1CaCl2; 5% CO2/95% O2), and recordings were done in a submersion-type chamber perfused with artificial cerebrospinal fluid (ACSF, in mM: 124NaCl, 5KCl, 1.25NaH2PO4, 26NaHCO3, 10 dextrose, 1.5MgCl2, and 2.5CaCl2; 5% CO2/95% O2, 29.5-30.5° C., 2 ml/min). For field potential recordings, synaptic responses were evoked using 0.2 ms duration pulses delivered through a bipolar glass stimulating electrode at 0.0333 Hz. A train of TBS consisted of a burst of 4 pulses at 100 Hz repeated 10 times at 5 Hz. For 4× TBS, 4 trains of TBS were given at 10 sec inter-train-intervals. For whole cell recordings, slices were transferred to a submersion-type recording chamber mounted on a fixed stage of an upright microscope (E600 FN; Nikon, Tokyo, Japan) with IR oblique illumination. […]. These neurons were patched using a whole cell patch pipette (tip resistance 3-5 MΩ), which was filled with internal solution (in mM: 120 Cs-methanesulfonate, 5MgCl2, 8NaCl, 1 EGTA, 10 HEPES, 2 Mg.ATP, 0.5Na3GTP and 1 QX-314; pH 7.3, 280-290 mOsm). Recording was initiated 2-3 min after break-in, and each cell was recorded for 10-15 min to collect enough mEPSCs for analysis. The Axon patch-clamp amplifier 700B (Molecular Devices, Union City, Calif.) was used for voltage-clamp recordings. Cells were held at −70 mV, and the recorded mEPSC data were digitized at 10 kHz with a data acquisition board (National Instruments, Austin, Tex.) and acquired through custom-made programs using the Igor Pro software (WaveMetrics, Lake Oswego, Oreg.). The MiniAnalysis program (Synaptosoft, Decatur, Ga.) was used to analyze the acquired mEPSCs. The threshold for detecting mEPSCs was set at three times the root mean square (RMS) noise. […] Recordings were excluded from analysis if the RMS noise was <2, the series resistance was […], and input resistance was >100 MΩ. To minimize the impact of dendritic filtering, we adopted the standard approach of excluding mEPSCs with rise time >3 ms, as well as cells showing a negative correlation between mEPSC amplitude and rise time (Rall, 1969). Only about 4% of the total recorded cells (at most 1 cell per experimental group) were excluded due to negative correlation between mEPSC rise and amplitude. One hundred consecutive mEPSCs that met the rise time criteria were analyzed from each cell. AMPAR- and NMDAR-mediated currents were measured at −70 and +40 mV, respectively. AMPAR mediated EPSC amplitudes were measured at the peak of the current at −70 mV. NMDAR mediated EPSC amplitudes were measured 100 ms after the stimulation artifact. Data are means±SE. Student's t-test was used for two-group comparisons. For all statistical tests, P<0.05 was considered statistically significant.
Therefore, we examined whether improved cognitive performance following BTA-EG4 treatment is associated with altered synaptic function and plasticity. We conducted electrophysiology experiments in an acute hippocampal slice preparation from wild-type mice injected with BTA-EG4 (30 mg/kg, i.p.) or control solution (10% DMSO, i.p) for 2 weeks. […] Long-term potentiation (LTP) was either normal or reduced, depending on the induction protocol (FIGS. 3C-3D). […] There was also not a change in presynaptic function (FIG. 3I).

dendritic spines = test: Golgi staining, dendritic spines of wild-type mice; type: in vivo; conditions: 30 mg/kg, 2 weeks
Protocol: Golgi staining and morphological analysis of dendritic spines. To analyze dendritic spine density and morphology in brain, FD RAPID GOLGISTAIN KIT™ (FD NeuroTechnologies, Ellicott City, Md., USA) was used. Dissected mouse brains were immersed in Solution A and B for 2 weeks in dark conditions at room temperature and transferred into Solution C for 24 h at 4° C. Brains were sliced using a VT1000S Vibratome (Leica, Bannockburn, Ill., USA) at 150 μm thickness. Dendritic images were acquired by Axioplan 2 (Zeiss, Oberkochen, Germany) under brightfield microscopy. Spine width, length, and linear density of cortical layers II/III and CA1 of hippocampus were measured using Scion image software (Scion Corporation, Frederick, Md., USA). Images were coded, and dendritic spines counted in a blinded manner. Spines from 0.2 to 2 μm in length were included for analysis. All morphological analysis was done blind to experimental conditions.

Ras = Ras activity assay, brain lysate of 3× Tg AD mice; type: in vivo; conditions: cortex and hippocampus, 30 mg/kg daily, 2 weeks
Protocol: Ras activity assay. Brain lysate from 3× Tg AD mice at 6-10 months or 13-16 months of age was homogenized with Ral buffer (25 mM Tris-HCl, pH 7.4, 250 mM NaCl, 0.5% NP40, 1.25 mM MgCl2, and 5% glycerol) to measure active Ras levels. Briefly, brain lysate was incubated with GST-Raf-RBD purified protein coupled with GLUTATHIONE SEPHAROSE™ (Amersham) overnight at 4° C. After 24 h, pellets were washed with Ral buffer and western blotting was conducted with anti-Ras.
BTA-EG4 injected 6-10 month old 3× Tg AD mice had increased Ras activity. […] Therefore, we examined whether the same mechanism is shared for improving dendritic spine density in the 3× Tg AD mouse model. To test this, 6-10 month old or 13-16 month old 3× Tg AD mice were injected with 30 mg/kg BTA-EG4 or vehicle daily for two weeks. After two weeks, mouse brains were homogenized with Ral buffer and levels of active Ras and RasGRF1 ([…]) were measured via Western blot. […] However, Ras activity was unchanged in the cortex and hippocampus of 13-16 month old mice (FIGS. 12E-12H, n=2 brains/group).

[1] = SC inputs to CA1, 30 mg/kg i.p., 2 weeks

## BTA-EG4
SC and TA inputs to CA1; SC inputs to CA1
  summation of synaptic responses during the LTP induction protocol: reduced
SC and TA inputs to CA1; SC inputs to CA1, induced by 1× TBS
  magnitude of LTP: No difference
SC and TA inputs to CA1; SC inputs to CA1, induced by 4× TBS
  magnitude of LTP: reduction
SC and TA inputs to CA1; [1]
  basal synaptic transmission: did not alter
  presynaptic function: did not alter
SC and TA inputs to CA1; TA inputs to CA1
  presynaptic function: not a change
  response summation during the induction protocol: absence of a change
  synaptic transmission normalized to presynaptic fiber volley amplitude: no difference
SC and TA inputs to CA1; TA inputs to CA1, at 1 h post-LTP, CTRL 120±2.1%
  TA-LTP: 109±1.2%
SC and TA inputs to CA1; TA inputs to CA1, 30 mg/kg i.p.
  ability to recruit presynaptic axons per stimulation intensity: reduced
Dendritic spines; CA1 region of the hippocampus
  dendritic spine density: significantly increased
Dendritic spines; cortical layers II/III
  dendritic spine density: significantly increased
Dendritic spines; hippocampus CA1 and cortical layers II/III
  spine morphology (spine head width and spine length): did not alter
Ras; 6-10 months
  Ras activity: increased
Ras; 13-16 months
  Ras activity: unchanged
